Laboratory results published in patent USRE33906E, “Cyclic carboxamide derivatives and their use as analgesics” (Dr.Lo.Zambeletti S.p.A., priority 1985, dated 1992).
pKi: −log10 of the molar value. Structures can show the parent of a compound that is named as a salt. Where two headings read alike, the source gives them in different places.

How the values were obtained:
[1] = system: mice (reaction time under heat source); assay: Mouse Tail-flick test; assay type: in vivo, mouse (Male Charles River); conditions: sc, 0.5 h; for responders at 1 mg/kg: 1 mg Kg^-1, Table 3, read-out: Mouse tail flick % Protection
Method: Mouse Tail-flick test (Modified from the procedure published by D'Amour et al., J. Pharm. Exptl. Ther. 72, 74/1941)
Male Charles River mice, average weight 26 g, are used. Selection is carried out before beginning of experiments: only mice whose reaction time is less than 8 sec are used. They are randomly distributed into groups of 10 and dosed with compounds under test, with positive and negative controls being included.
Compounds under test are administered subcutaneously in isotonic saline in a volume of 20 ml. Kg^-1. 30 min later mice are placed again under heat source (Socrel apparatus) and reaction time is recorded.
The analgestic activity of the test compound is expressed as the percent number of mice doubling the initial time within a group. [formula]

[2] = target: μ receptor (Cavia porcellus, UniProt A0ACM8Q262); assay: Radio receptor binding to μ sites (3H-DAGO)
Method: (§1) RECEPTOR AFFINITY STUDY Tissue preparation
(§2) Radio receptor binding to μ and K sites is performed on fresh guinea pig brain homogenate prepared according to Kosterlitz (1981).
(§3) Whole brain without cerebellum is homogenized in 50 mM, Tris-buffer (pH 7.4 at 0° C.) and centrifuged at 49,000×g×10 min.
(§4) The pellet is then resuspended in the same buffer, incubated at 37° C. for 45 min. and centrifuged again.
(§5) 1.9 ml of the final homogenate (1:100 in Tris-pH 7.4, 0° C.) is used for the binding assay.
Binding to μ sites (Magnan J., 1982)
^3 H [D-Ala^2, MePhe^4, Gly-ol^5 ] Enkephalin (^3 H-DAGO), an enkephalin analogue that binds selectively to μ receptor, is added to the biological substrate and incubated at 25° C. for 40 min., filtered through Whatman GF-C and washed with ice-cold Tris-buffer.
The filters are then dryed, solubilized in Filtercount and the radioactivity monitored. Non specific binding is determined in the presence of 10^-6 M Naloxone.
(§6) For the calculation of the kinetic parameters of the binding of labelled and unlabelled ligands, the equilibrium dissociation constant (KD), the inhibition constant (Ki) and the maximum number of binding sites (B max) are determined from saturation curves and competition experiments (Hill 1910; Scatchard 1949; Cheng and Prusoff 1973; Gillan et al. 1980).
(§7) A concentration of radioligand near KD is used in the binding assays evaluating our compounds.

[3] = system: mice (p-phenylquinone writhing); assay: Mouse p-phenylquinone Writhing test; assay type: in vivo, mouse (Male Charles River); conditions: sc, Table 2
Method: Mouse p-phenylquinone Writhing test (According to Siegmund et al., Proc. Soc. Exptl. Biol. 95, 729/1957)
Male Charles River mice, average weight 26 g, are randomly distributed into group of 10 and are dosed subcutaneously with compounds under test, dissolved in isotonic saline (20 ml.Kg^-1). The experiments are carried out in the presence of positive and negative controls. 20 min after the mince are injected intraperitoneally with p-phenylquinone 0.02%, 10 ml. Kg^-1, maintained at 37° C. in a water bath. The mice are placed in a perspex compartmented observation box and observed for a period of 8 min after injection of p-phenylquinone. The dose-response curve is obtained by basing observation on the all or none response.

[4] = target: T1, K receptor (Kappa opioid receptor) (Cavia porcellus, UniProt P41144); assay: Radio receptor binding to K sites (tritiated Ethylketocyclazocine); parameters: species or system guinea pig; conditions: for remaining activity at 1 µM: 40 min, 10^-6 M, read-out: Opiate receptor binding K, % residual specific binding at 10^-6 M
T1 construct: fresh guinea pig brain homogenate; from tissue; host or cells: guinea pig whole brain without cerebellum, homogenate
Method: as §1, §2, §3, §4, §5
Binding to K sites (Magnan J., 1982)
The binding of tritiated Ethylketocyclazocine to brain homogenate is measured the in presence of 100 nanomolar D-Ala-D-LeuEnkephalin (DADLE) and 100 nanomolar DAGO, added to saturate the δ and μ opioid receptors respectively.
Final homogenate with solutions of the cold ligand and of the labelled ligand is incubated for 40 min. at 25° C., filtered through Whatman GF/C glass filter discs and washed.
The radioactivity bound to the filters is counted by liquid scintillation spectrophotometry.
MR 2266.500 nM is utilized to determine the saturable binding.
as §6, §7

[5] = system: mice (reaction time under heat source); assay: Mouse Tail-flick test; assay type: in vivo, mouse (Male Charles River); conditions: oral (os), Table 3
[6] = read-out: Receptor binding μ Ki, guinea pig brain homogenate, Table 2
[7] = s.c., 30 min after dosing, Table 2, read-out: Mouse tail flick ED50
[8] = guinea pig brain homogenate, Table 3
[9] = subcutaneous, Table 3, read-out: Mouse tail flick subcutaneous ED50

Sequence of μ receptor (A0ACM8Q262 1-400): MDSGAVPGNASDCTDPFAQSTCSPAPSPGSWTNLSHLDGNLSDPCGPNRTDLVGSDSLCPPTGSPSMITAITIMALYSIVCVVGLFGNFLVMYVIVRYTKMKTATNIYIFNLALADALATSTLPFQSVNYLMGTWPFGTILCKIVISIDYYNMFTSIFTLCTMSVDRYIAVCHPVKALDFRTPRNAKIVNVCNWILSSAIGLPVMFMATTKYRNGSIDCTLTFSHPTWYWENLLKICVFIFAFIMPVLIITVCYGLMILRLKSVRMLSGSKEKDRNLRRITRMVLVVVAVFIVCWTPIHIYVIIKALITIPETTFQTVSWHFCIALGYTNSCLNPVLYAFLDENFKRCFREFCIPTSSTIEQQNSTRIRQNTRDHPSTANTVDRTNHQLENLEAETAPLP
T1 sequence (P41144 whole entry): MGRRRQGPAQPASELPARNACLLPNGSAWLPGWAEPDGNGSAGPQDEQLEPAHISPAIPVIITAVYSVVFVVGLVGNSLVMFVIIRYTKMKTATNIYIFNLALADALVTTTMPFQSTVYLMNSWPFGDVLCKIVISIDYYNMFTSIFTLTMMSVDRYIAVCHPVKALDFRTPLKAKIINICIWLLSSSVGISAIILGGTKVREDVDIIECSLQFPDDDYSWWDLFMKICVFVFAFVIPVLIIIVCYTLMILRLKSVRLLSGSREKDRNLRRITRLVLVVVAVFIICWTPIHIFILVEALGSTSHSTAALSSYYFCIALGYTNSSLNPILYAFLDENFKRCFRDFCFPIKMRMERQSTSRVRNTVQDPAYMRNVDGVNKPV

SMILES	responders at 1 mg/kg ([1]; subcutaneous)	ED50 [3]	ED50 [1, 7]	pKi [4]	remaining activity at 1 µM [4, 8]	further results
CCC(C(=O)N1CCCCC1CN1CCCC1)c1ccccc1 (single isomer, unassigned; isomer b) [Example 16, 1-(2-phenylbutyroil)-2-(1pyrrolidinylmethyl) piperidine hydrochloride. Isomer B]	40%	–	–	–	–	–
O=C(Cc1ccc(Cl)c(Cl)c1)N1CCCCC1CN1CCCC1 (centres unmarked) [Example 1, 1-(3,4-dichlorophenyl)acetyl-2-(1-pyrrolidinyl)methyl piperidine hydrochloride]	–	0.2 mg/kg	0.11 mg/kg	–	–	pKi [2, 6]: 5.73; pKi ([4]; guinea pig brain homogenate, tritiated Ethylketocyclazocine with DADLE and DAGO 100 nM each, Table 2, read-out: Receptor binding K Ki): 8.74
CN(C)CC1CCCCN1C(=O)Cc1ccc(Cl)c(Cl)c1 (centres unmarked) [Example 2, 1-(3,4-dichlorophenyl)acetyl-2-dimethylaminomethyl piperidine hydrochloride]	–	0.65 mg/kg	0.36 mg/kg	8.09	–	pKi ([2]; guinea pig brain homogenate, Table 2, read-out: Receptor binding μ Ki): 5.43
O=C(Cc1ccc(Cl)c(Cl)c1)N1CCCC[C@@H]1CN1CCCC1 [Example 3, (2R)-1-(3,4-dichlorophenylacetyl)-2-(1-pyrrolidinylmethyl)piperidine hydrochloride hydrate]	–	12.4 mg/kg	17.5 mg/kg	7.21	–	pKi [2, 6]: 5.15
O=C(Cc1ccc(Cl)c(Cl)c1)N1CCCC[C@H]1CN1CCCC1 [Example 4, (2S)-1-(3,4-dichlorophenylacetyl)-2-(1-pyrrolidinylmethyl)piperidine hydrochloride hydrate]	–	0.12 mg/kg	0.055 mg/kg	9.11	–	pKi [2, 6]: 5.81
CN(C)C[C@@H]1CCCCN1C(=O)Cc1ccc(Cl)c(Cl)c1 [Example 5, (2S)-1-(3,4-dichlorophenylacetyl)-2-dimethylamino methylpiperidine sesquihydrate]	–	0.44 mg/kg	1.03 mg/kg	8.30	–	pKi [2, 6]: < 9.00
O=C(Cc1ccc(Cl)c(Cl)c1)N1CCCCCC1CN1CCCC1 (centres unmarked) [Example 8, 1-(3,4-dichlorophenylacetyl)-2-(1-pyrrolidinylmethyl)-hexahydroazepine hydrochloride]	–	–	8.76 mg/kg	8.19	–	–
O=C(Cc1ccccc1)N1CCCCC1CN1CCCC1 (centres unmarked) [Example 10, 1-phenylacetyl-2-(1-pyrrolidinylmethyl)piperidine hydrochloride]	40%	–	–	–	100%	–
Cc1ccc(CC(=O)N2CCCCC2CN2CCCC2)cc1C (centres unmarked) [Example 11, 1-(3,4-dimethylphenylacetyl)-2-(1-pyrrolidinylmethyl) piperidine hydrochloride]	60%	–	–	–	67%	–
O=C(Cc1ccc2c(c1)CCC2)N1CCCCC1CN1CCCC1 (centres unmarked) [Example 12, 1-(5-indaneacetyl)-2-(1-pyrrolidinylmethyl)piperidine hydrochloride]	60%	–	–	–	62%	–
O=C(Cc1ccc2c(c1)CCCC2)N1CCCCC1CN1CCCC1 (centres unmarked) [Example 13, 1-(6-tetralylacetyl)-2-(1-pyrrolidinylmethyl)piperidine hydrochloride]	80%	–	–	–	–	pKi ([2]; read-out: Opiate receptor binding μ Ki, guinea pig brain homogenate, Table 3): 6.30; pKi ([4]; guinea pig brain homogenate, tritiated Ethylketocyclazocine, Table 3, read-out: Opiate receptor binding K Ki): 8.24; ED50 [5]: 3.91 mg/kg; ED50 [1, 9]: 45 mg/kg
O=C(Cc1ccc(Cl)cc1)N1CCCCC1CN1CCCC1 (centres unmarked) [Example 14, 1-(4-chlorophenylacetyl)-2-(1-pyrrolidinylmethyl) piperidine hydrochloride]	40%	–	–	–	61%	–
COc1ccc(CC(=O)N2CCCCC2CN2CCCC2)cc1OC (centres unmarked) [Example 15, 1-(3-4-dimethoxyphenylacetyl)-2-(1-pyrrolidinylmethyl) piperidine hydrochloride]	40%	–	–	–	100%	–
O=C(COc1ccc(Cl)cc1)N1CCCCC1CN1CCCC1 (centres unmarked) [Example 17, 1-(4-chlorophenoxyacetyl)-2-(1-pyrrolidinylmethyl) piperidine hydrochloride]	80%	–	–	8.02	–	ED50 [1, 9]: 91 mg/kg
